Literature values, collected in patent US20230233180A1, “Emergency Ultrasound Gel” (priority 2022, published 2023).
≈ marks a conversion by molar mass, not a printed value. Read-outs that look alike come from different tables or passages of the source.

Legend:
[1] = system: wide variety of yeast and fungi
wide range of bacteria = settings: bactericidal

Row | Compound | MIC (Candida albicans; Canddia albicans M9) [µg/mL] | MIC (Candida albicans; Candida albicans 10231) [µg/mL] | MIC (Candida albicans; Candida albicans H33) [µg/mL] | MIC (Candida albicans; Candida albicans H37) [µg/mL] | MIC (Candida albicans; Candida albicans H38) [µg/mL] | MIC (Candida albicans; Candida albicans M28) [µg/mL] | MIC (Candida albicans; Candida albicans M36) [µg/mL] | MIC (Candida albicans; Candida albicans SCO) [µg/mL] | MIC (Candida albicans; Candida albicans Ser5) [µg/mL] | MIC (Candida albicans; Candida. albicans H65) [µg/mL] | antifungal effect [1] | concentration that kills a wide range of bacteria (wide range of bacteria) [%]
1 | CCCCN1CCCCC1C(=O)Nc1c(C)cccc1C (stereo not shown) [Bupivacaine] | 1300 (≈ 4.51 mM) | 2500 (≈ 8.67 mM) | 2500 (≈ 8.67 mM) | 5000 (≈ 17.3 mM) | 2500 (≈ 8.67 mM) | 1300 (≈ 4.51 mM) | 2500 (≈ 8.67 mM) | 1300 (≈ 4.51 mM) | 2500 (≈ 8.67 mM) | 1300 (≈ 4.51 mM) | – | –
2 | CCN(CC)CC(=O)Nc1c(C)cccc1C [Lidocaine] | 2500 (≈ 10.7 mM) | 5000 (≈ 21.3 mM) | 5000 (≈ 21.3 mM) | 10000 (≈ 42.7 mM) | 5000 (≈ 21.3 mM) | 2500 (≈ 10.7 mM) | 5000 (≈ 21.3 mM) | 2500 (≈ 10.7 mM) | 5000 (≈ 21.3 mM) | 2500 (≈ 10.7 mM) | – | –
3 | O=C([O-])CNCO.[Na+] [Sodium hydroxymethylglycinate] | – | – | – | – | – | – | – | – | – | – | does not have strong antifungal effect | 0.09
